In patent US10039780B2 (Chiesi Farmaceutici S.p.A., priority 2015, dated 2018):

How the values were obtained:
Assay type in all cases: physicochemical
[1] = Long term stability at 25° C. and 60% relative humidity (HPLC, ion chromatography, Karl-Fischer); conditions: for Impurity A concentration / Impurity B concentration / Total impurities concentration / Moisture concentration / Impurity E concentration / Impurity C concentration: 25° C./60% relative humidity; for Moisture concentration: Karl-Fischer; for Impurity E concentration: ion chromatography; for storage stability, conclusion in words: storage at 25° C./60% relative humidity
Procedure: Their pH was adjusted to 8.5 prior to lyophilization and they were stored in glass vials stoppered with a stopper specifically selected for its ability to retain as little moisture as possible after autoclaving and after drying for 8 h at 105° C. […] Cangrelor lots API A-B are cangrelor tetrasodium. They were stored in double polyethylene bags in […]. […] In addition their moisture content was determined by Karl-Fischer titration.

[2] = Hygroscopicity by dynamic vapor adsorption analysis
[3] = Solution stability of cangrelor in purified water, reverse phase HPLC; conditions: 1 mg/mL in purified water
[4] = Accelerated pH stability of cangrelor in buffer solutions, reverse phase HPLC; conditions: 1 mg/mL, 7 days at 40° C. protected from light
Procedure: The extent of degradation was determined using a reverse phase HPLC method.

[5] = Photostability of solid cangrelor in quartz cuvettes, reverse phase HPLC
Procedure: Namely, solid cangrelor was placed in two quartz cuvettes. Both cuvettes were placed in a chamber and exposed to a combination of […] (near UV) and […] (visible) light for a total of 7.8×10^6 LUX hours and 221 watt hours/m^2, but one cuvette was wrapped in aluminum foil. After 17 days, the levels of impurities in the sample were determined by reverse phase HPLC.

[6] = after 8 days, 4° C. and ambient humidity
[7] = after 8 days, 25° C. and 60% relative humidity
[8] = after 8 days, 40° C. and ambient humidity

SMILES: CSCCNc1nc(SCCC(F)(F)F)nc2c1ncn2[C@@H]1O[C@H](COP(=O)([O-])OP(=O)([O-])C(Cl)(Cl)P(=O)([O-])[O-])[C@@H](O)[C@H]1O.[Na+].[Na+].[Na+].[Na+] [API A]
- Impurity A concentration ([1]; 1 month): 0.28 % w/w
- Impurity B concentration ([1]; 1 month): 0.22 % w/w
- Total impurities concentration ([1]; 1 month): 1.10 % w/w
- Moisture concentration ([1]; 1 month): 7.7 % w/w
- Impurity E concentration ([1]; 1 month): 0.08 % w/w
- Impurity A concentration ([1]; 3 months): 0.47 % w/w
- Impurity B concentration ([1]; 3 months): 0.33 % w/w
- Total impurities concentration ([1]; 3 months): 1.40 % w/w
- Moisture concentration ([1]; 3 months): 11.3 % w/w
- Impurity E concentration ([1]; 3 months): 0.11 % w/w
- Impurity A concentration ([1]; Initial): 0.15 % w/w
- Impurity B concentration ([1]; Initial): 0.11 % w/w
- Total impurities concentration ([1]; Initial): 0.70 % w/w
- Moisture concentration ([1]; Initial): 4.3 % w/w
- Impurity E concentration ([1]; Initial): 0.06 % w/w
- storage stability, conclusion in words [1]: display significant degradation over time

SMILES: CSCCNc1nc(SCCC(F)(F)F)nc2c1ncn2[C@@H]1O[C@H](COP(=O)(O)OP(=O)(O)C(Cl)(Cl)P(=O)(O)O)[C@@H](O)[C@H]1O [cangrelor tetrasodium]
- hygroscopicity [2]: hygroscopic

SMILES: CSCCNc1nc(SCCC(F)(F)F)nc2c1ncn2[C@@H]1O[C@H](COP(=O)(O)OP(=O)(O)C(Cl)(Cl)P(=O)(O)O)[C@@H](O)[C@H]1O [Cangrelor, [dichloro-[[[(2R,3S,4R,5R)-3,4-dihydroxy-5-[6-(2-methylsulfanylethylamino)-2-(3,3,3-trifluoropropylsulfanyl)purin-9-yl]oxolan-2-yl]methoxy-hydroxyphosphoryl]oxy-hydroxyphosphoryl]methyl]phosphonic acid]
- Cangrelor measured level ([3]; Initial): 98.23 % w/w
- Impurity A measured level ([3]; Initial): 0.16 % w/w
- Impurity C measured level ([3]; Initial): 0.28 % w/w
- Total Impurities measured level ([3]; Initial): 1.76 % w/w
- Cangrelor measured level [3, 6]: 98.45 % w/w
- Impurity A measured level [3, 6]: 0.22 % w/w
- Impurity C measured level [3, 6]: 0.26 % w/w
- Total Impurities measured level [3, 6]: 1.54 % w/w
- Cangrelor measured level [3, 7]: 96.94 % w/w
- Impurity A measured level [3, 7]: 1.58 % w/w
- Impurity C measured level [3, 7]: 0.27 % w/w
- Total Impurities measured level [3, 7]: 3.06 % w/w
- Cangrelor measured level [3, 8]: 90.46 % w/w
- Impurity A measured level [3, 8]: 7.50 % w/w
- Impurity C measured level [3, 8]: 0.37 % w/w
- Total Impurities measured level [3, 8]: 9.56 % w/w
- Impurity A ([4]; pH 1.0, 0.1M HCl): 28.51 % w/w
- Impurity D ([4]; pH 1.0, 0.1M HCl): 68.12 % w/w
- Total Impurities ([4]; pH 1.0, 0.1M HCl): 97.28 % w/w
- Impurity A ([4]; pH 3.0, Phosphate): 28.69 % w/w
- Impurity D ([4]; pH 3.0, Phosphate): 0.81 % w/w
- Total Impurities ([4]; pH 3.0, Phosphate): 31.48 % w/w
- Impurity A ([4]; pH 5.0, Phosphate): 20.70 % w/w
- Total Impurities ([4]; pH 5.0, Phosphate): 22.16 % w/w
- Impurity A ([4]; pH 7.0, Phosphate): 14.31 % w/w
- Total Impurities ([4]; pH 7.0, Phosphate): 15.71 % w/w
- Impurity A ([4]; pH 9.0, Phosphate): 3.25 % w/w
- Total Impurities ([4]; pH 9.0, Phosphate): 4.90 % w/w
- Impurity A ([4]; pH 11.0, Phosphate): 2.61 % w/w
- Total Impurities ([4]; pH 11.0, Phosphate): 4.28 % w/w
- Impurity A ([4]; pH 12.0, 0.1M NaOH): 2.42 % w/w
- Total Impurities ([4]; pH 12.0, 0.1M NaOH): 4.39 % w/w
- total level of impurities ([5]; solid cangrelor, initially): 0.8 % (w/w)
- total level of impurities ([5]; solid, exposed sample, near UV and visible light, 7.8×10^6 LUX hours and 221 watt hours/m^2, after 17 days): 4.3 % (w/w)
- total level of impurities ([5]; solid, shielded sample (cuvette wrapped in aluminum foil), after 17 days): 1.2 % (w/w)

SMILES: CSCCNc1nc(SCCC(F)(F)F)nc2c1ncn2[C@@H]1O[C@H](COP(=O)([O-])OP(=O)([O-])C(Cl)(Cl)P(=O)([O-])[O-])[C@@H](O)[C@H]1O.[Na+].[Na+].[Na+].[Na+] [API B]
- Impurity A concentration ([1]; 1 month): 0.36 % w/w
- Impurity B concentration ([1]; 1 month): 0.19 % w/w
- Impurity C concentration ([1]; 1 month): 0.06 % w/w
- Total impurities concentration ([1]; 1 month): 1.10 % w/w
- Moisture concentration ([1]; 1 month): 6.9 % w/w
- Impurity A concentration ([1]; 3 months): 0.51 % w/w
- Impurity B concentration ([1]; 3 months): 0.32 % w/w
- Impurity C concentration ([1]; 3 months): 0.08 % w/w
- Total impurities concentration ([1]; 3 months): 1.50 % w/w
- Moisture concentration ([1]; 3 months): 9.9 % w/w
- Impurity A concentration ([1]; 6 months): 0.70 % w/w
- Impurity B concentration ([1]; 6 months): 0.48 % w/w
- Impurity C concentration ([1]; 6 months): 0.19 % w/w
- Total impurities concentration ([1]; 6 months): 1.90 % w/w
- Moisture concentration ([1]; 6 months): 11.6 % w/w
- Impurity A concentration ([1]; Initial): 0.31 % w/w
- Impurity B concentration ([1]; Initial): 0.11 % w/w
- Impurity C concentration ([1]; Initial): <0.05 % w/w
- Total impurities concentration ([1]; Initial): 0.80 % w/w
- Moisture concentration ([1]; Initial): 7.0 % w/w
- storage stability, conclusion in words [1]: display significant degradation over time
